Measured values reported in publication PMC6318274, “Lattice engineering enables definition of molecular features allowing for potent small-molecule inhibition of HIV-1 entry” (Nature Communications, 2019).
“And” between values parts separate entries of the source, which are not always exact repeats. Equal values may be shown once. Read-outs that look alike come from different tables or passages of the source.

What was measured:
[1] = tested on: HIV-1 Env-pseudoviruses (30-strain panel); test: Neutralization assay, cross-clade 30-strain panel (Env-pseudoviruses, TZM-bl target cells); format: cell-based
Protocol: Neutralization was measured using single-round-of-infection HIV-1 Env-pseudoviruses and TZM-bl target cells (ARP Cat No. #8129)[44],[45]. Compounds were prepared at 400 μM with 4% DMSO (dimethyl sulfoxide) in PBS (phosphate-buffered saline) and diluted 20 times as the starting concentration for serial dilution in the neutralization assays. […] After incubation at 37 °C for 2 days, infection of target cells was measured by luciferase activity. Neutralization curves were fit by nonlinear regression using a five-parameter hill slope equation[45].

[2] = target: BG505 DS-SOSIP.664 Env trimer (Human immunodeficiency virus 1, UniProt Q2N0S5, A430C/A498C/I200C/I556P/T330N/T602C, form not given); format: binding, HIV-1; settings: ITC, 37 °C
SIVmac251.30.SG3 = tested on: SIVmac251.30.SG3; parameters: method as in earlier work; settings: SIVmac251.30.SG3, clade NA; cited from earlier work
HIV-1 strain NL4-3 = test: Entry inhibition of laboratory-adapted HIV-1 strain NL4-3; format: cell-based; settings: Human immunodeficiency virus 1, NL43; NL4-3
[3] = Human immunodeficiency virus 1, TZM-bl, 242-14 (Clade AG), read-out: IC50
[4] = Human immunodeficiency virus 1, TZM-bl, 247-23 (Clade D), read-out: IC50
[5] = Human immunodeficiency virus 1, TZM-bl, 0330.v4.c3 (Clade A), read-out: IC50
[6] = Human immunodeficiency virus 1, TZM-bl, 426c (Clade C), read-out: IC50
[7] = Human immunodeficiency virus 1, TZM-bl, 7165.18 (Clade B), read-out: IC50
[8] = Human immunodeficiency virus 1, TZM-bl, B41 (Clade B), read-out: IC50
[9] = Human immunodeficiency virus 1, TZM-bl, BJOX028000.10.3 (Clade AE), read-out: IC50
[10] = Human immunodeficiency virus 1, TZM-bl, BL01.DG (Clade B), read-out: IC50
[11] = Human immunodeficiency virus 1, TZM-bl, C4118.09 (Clade AE), read-out: IC50
[12] = Human immunodeficiency virus 1, TZM-bl, CAP210.E8 (Clade C), read-out: IC50
[13] = Human immunodeficiency virus 1, TZM-bl, CH119.10 (Clade BC), read-out: IC50
[14] = Human immunodeficiency virus 1, TZM-bl, CNE10 (Clade B), read-out: IC50
[15] = Human immunodeficiency virus 1, TZM-bl, CNE20 (Clade BC), read-out: IC50
[16] = Human immunodeficiency virus 1, TZM-bl, CNE56 (Clade AE), read-out: IC50
[17] = Human immunodeficiency virus 1, TZM-bl, DJ263.8 (Clade AG), read-out: IC50
[18] = Human immunodeficiency virus 1, TZM-bl, DU156.12 (Clade C), read-out: IC50
[19] = Human immunodeficiency virus 1, TZM-bl, Geomean, 30-strain panel, read-out: Geometric mean IC50
[20] = Human immunodeficiency virus 1, TZM-bl, KER2008.12 (Clade A), read-out: IC50
[21] = Human immunodeficiency virus 1, TZM-bl, MB201.A1 (Clade A), read-out: IC50
[22] = Human immunodeficiency virus 1, TZM-bl, NKU3006.ec1 (Clade D), read-out: IC50
[23] = Human immunodeficiency virus 1, TZM-bl, P0402.c2.11 (Clade G), read-out: IC50
[24] = Human immunodeficiency virus 1, TZM-bl, PVO.04 (Clade B), read-out: IC50
[25] = Human immunodeficiency virus 1, TZM-bl, R3265.c6 (Clade AE), read-out: IC50
[26] = Human immunodeficiency virus 1, TZM-bl, REJO.67 (Clade B), read-out: IC50
[27] = Human immunodeficiency virus 1, TZM-bl, T253-11 (Clade AG), read-out: IC50
[28] = Human immunodeficiency virus 1, TZM-bl, T280-5 (Clade AG), read-out: IC50
[29] = Human immunodeficiency virus 1, TZM-bl, ZM106.9 (Clade C), read-out: IC50

`COc1cnc(-n2cnc(C)n2)c2[nH]cc(C(=O)C(=O)N3CCN(C(=O)c4ccccc4)CC3)c12` [BMS-626529] showed an IC50 ([1]; Geomean, 30-strain panel, read-out: Geometric mean IC50) of about 40 nM, an IC50 [1, 3] of 24 nM and an IC50 [1, 4] of 9 nM. It also gave an IC50 [1, 5] of 185 nM, an IC50 [1, 6] of 5 nM and an IC50 [1, 7] of 20 nM. The IC50 [1, 8] was 0.7 nM, the IC50 [1, 9] was over 20000 nM and the IC50 [1, 10] was 12400 nM. For the same compound, the IC50 [1, 11] was 6210 nM, the IC50 [1, 12] was 66 nM and the IC50 [1, 13] was 5 nM. The IC50 [1, 14] was 2 nM, the IC50 [1, 15] was 878 nM and the IC50 [1, 16] was over 20000 nM. The IC50 [1, 17] was 12 nM, the IC50 [1, 18] was 2 nM and the IC50 [1, 19] was over 40 nM. The IC50 [1, 20] was 758 nM, the IC50 [1, 21] was 474 nM and the IC50 [1, 22] was 2 nM. It also gave an IC50 [1, 23] of 17 nM, an IC50 [1, 24] of 0.9 nM and an IC50 [1, 25] of 5840 nM. It also gave an IC50 [1, 26] of 205 nM, an IC50 [1, 27] of 0.5 nM and an IC50 [1, 28] of 3 nM. The IC50 [1, 29] was 16 nM, the IC50 ([1]; Human immunodeficiency virus 1, TZM-bl, read-out: IC50) was 5 nM and the “-TΔS” value [2] was “+7.7 kcal/mol”. For the same compound, the ΔG [2] was -9.1 kcal/mol, the ΔH [2] was -16.8 kcal/mol and the IC50 (SIVmac251.30.SG3) was over 20000 nM.
For `COc1cnc(-c2csc(C(=O)NCCO)n2)c2[nH]cc(C(=O)C(=O)N3CCC(=C(C#N)c4ccccc4)CC3)c12` [BMS-818251], the EC50 (HIV-1 strain NL4-3) was 0.019 ± 0.003 nM, the IC50 ([1]; Human immunodeficiency virus 1, TZM-bl) was < 0.3 nM and < 0.0002 µg/mL and the IC50 [1, 3] was under 0.3 nM. The IC50 ([1]; Human immunodeficiency virus 1, TZM-bl, 242-14.SG3 (Clade AG), read-out: IC50) was under 0.2 ng/mL, the IC50 [1, 4] was under 0.3 nM and the IC50 ([1]; Human immunodeficiency virus 1, TZM-bl, 247-23.SG3 (Clade D), read-out: IC50) was under 0.2 ng/mL. The IC50 [1, 5] was 4 nM, the IC50 ([1]; Human immunodeficiency virus 1, TZM-bl, 0330.v4.c3.SG3 (Clade A), read-out: IC50) was 2.3 ng/mL and the IC50 [1, 6] was 0.4 nM. It also gave an IC50 ([1]; Human immunodeficiency virus 1, TZM-bl, 426c.SG3 (Clade C), read-out: IC50) of under 0.2 ng/mL, an IC50 [1, 7] of 13 nM and an IC50 ([1]; Human immunodeficiency virus 1, TZM-bl, 7165.18.SG3 (Clade B), read-out: IC50) of 7.4 ng/mL. The IC50 ([1]; Human immunodeficiency virus 1, TZM-bl, A03349M1.vrc4a.SG3 (Clade D), read-out: IC50) was under 0.2 ng/mL, the IC50 [1, 8] was under 0.3 nM and the IC50 ([1]; Human immunodeficiency virus 1, TZM-bl, B41.SG3 (Clade B), read-out: IC50) was under 0.2 ng/mL. It also gave an IC50 [1, 9] of 733 nM, an IC50 ([1]; Human immunodeficiency virus 1, TZM-bl, BJOX028000.10.3.SG3 (Clade AE), read-out: IC50) of 418 ng/mL and an IC50 [1, 10] of 533 nM. It also gave an IC50 ([1]; Human immunodeficiency virus 1, TZM-bl, BL01.DG.SG3 (Clade B), read-out: IC50) of 304 ng/mL, an IC50 [1, 11] of 89 nM and an IC50 ([1]; Human immunodeficiency virus 1, TZM-bl, C4118.09.SG3 (Clade AE), read-out: IC50) of 50.7 ng/mL. It also gave an IC50 [1, 12] of 22 nM, an IC50 ([1]; Human immunodeficiency virus 1, TZM-bl, CAP210.E8.SG3 (Clade C), read-out: IC50) of 12.5 ng/mL and an IC50 [1, 13] of under 0.3 nM. It also gave an IC50 ([1]; Human immunodeficiency virus 1, TZM-bl, CH119.10.SG3 (Clade BC), read-out: IC50) of under 0.2 ng/mL, an IC50 [1, 14] of under 0.3 nM and an IC50 ([1]; Human immunodeficiency virus 1, TZM-bl, CNE10.SG3 (Clade B), read-out: IC50) of under 0.2 ng/mL. It also gave an IC50 [1, 15] of 6 nM, an IC50 ([1]; Human immunodeficiency virus 1, TZM-bl, CNE20.SG3 (Clade BC), read-out: IC50) of 3.4 ng/mL and an IC50 [1, 16] of 471 nM. The IC50 ([1]; Human immunodeficiency virus 1, TZM-bl, CNE56.SG3 (Clade AE), read-out: IC50) was 268 ng/mL, the IC50 [1, 17] was under 0.3 nM and the IC50 ([1]; Human immunodeficiency virus 1, TZM-bl, DJ263.8.SG3 (Clade AG), read-out: IC50) was under 0.2 ng/mL. It also gave an IC50 [1, 18] of under 0.3 nM, an IC50 ([1]; Human immunodeficiency virus 1, TZM-bl, DU156.12.SG3 (Clade C), read-out: IC50) of under 0.2 ng/mL and an IC50 [1, 19] of about 2 nM. The IC50 [1, 20] was 11 nM, the IC50 ([1]; Human immunodeficiency virus 1, TZM-bl, KER2008.12.SG3 (Clade A), read-out: IC50) was 6.3 ng/mL and the IC50 [1, 21] was 14 nM. The IC50 ([1]; Human immunodeficiency virus 1, TZM-bl, MB201.A1.SG3 (Clade A), read-out: IC50) was 8 ng/mL, the IC50 [1, 22] was under 0.3 nM and the IC50 ([1]; Human immunodeficiency virus 1, TZM-bl, NKU3006.ec1.SG3 (Clade D), read-out: IC50) was under 0.2 ng/mL. For the same compound, the IC50 [1, 23] was under 0.3 nM, the IC50 ([1]; Human immunodeficiency virus 1, TZM-bl, P0402.c2.11.SG3 (Clade G), read-out: IC50) was under 0.2 ng/mL and the IC50 [1, 24] was under 0.3 nM. It also gave an IC50 ([1]; Human immunodeficiency virus 1, TZM-bl, PVO.04.SG3 (Clade B), read-out: IC50) of under 0.2 ng/mL, an IC50 [1, 25] of 32 nM and an IC50 ([1]; Human immunodeficiency virus 1, TZM-bl, R3265.c6.SG3 (Clade AE), read-out: IC50) of 18.2 ng/mL. For the same compound, the IC50 [1, 26] was 450 nM, the IC50 ([1]; Human immunodeficiency virus 1, TZM-bl, REJO.67.SG3 (Clade B), read-out: IC50) was 256 ng/mL and the IC50 [1, 27] was under 0.3 nM. It also gave an IC50 ([1]; Human immunodeficiency virus 1, TZM-bl, T253-11.SG3 (Clade AG), read-out: IC50) of under 0.2 ng/mL, an IC50 [1, 28] of under 0.3 nM and an IC50 ([1]; Human immunodeficiency virus 1, TZM-bl, T280-5.SG3 (Clade AG), read-out: IC50) of under 0.2 ng/mL. The IC50 [1, 29] was 0.5 nM, the IC50 ([1]; Human immunodeficiency virus 1, TZM-bl, ZM106.9.SG3 (Clade C), read-out: IC50) was 0.3 ng/mL and the IC50 ([1]; Human immunodeficiency virus 1, TZM-bl, geomean, 30-strain panel, read-out: Geometric mean IC50) was under 0.2 ng/mL. For the same compound, the IC50 ([1]; Human immunodeficiency virus 1, TZM-bl, read-out: Geometric mean IC50) was under 2 nM, the “-TΔS” value [2] was “+4.5 kcal/mol” and the ΔG [2] was -10.4 kcal/mol. The ΔH [2] was -14.9 kcal/mol and the Kd ([2]; read-out: Kd (affinity)) was 47 nM.
